Entries after “also recorded” stand apart in the source; their conditions may differ. Where two headings read alike, the source gives them in different places.
Legend:
[1] = test system: SARS-CoV-2 infected A549-ACE2 cells; type: cell-based
[2] = test system: SARS-CoV-2; assay: Cellular antiviral assays against SARS-CoV-2; type: cell-based
[3] = test system: SARS-CoV-2; conditions: for effect on lung viral titer / viral propagation in mice: in vivo
[4] = test system: A549 cells; type: cell-based, human; conditions: for induction of phospholipidosis: NBD-PE staining, A549 cells
[5] = target: human sigma-1 receptor (Homo sapiens, UniProt Q99720); type: binding
Chain of human sigma-1 receptor (Q99720 whole entry): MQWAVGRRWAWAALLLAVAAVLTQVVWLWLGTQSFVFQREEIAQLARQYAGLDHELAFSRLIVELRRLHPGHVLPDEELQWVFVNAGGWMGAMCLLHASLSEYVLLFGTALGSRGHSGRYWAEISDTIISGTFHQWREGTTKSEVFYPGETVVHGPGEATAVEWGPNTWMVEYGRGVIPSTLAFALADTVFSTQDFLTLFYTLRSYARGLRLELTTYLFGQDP

[6] = target: human sigma-2 receptor (Homo sapiens, UniProt Q5BJF2); conditions: radioligand displacement, fractional binding at 1 μM (Fig. 2E)
Chain of human sigma-2 receptor (Q5BJF2 whole entry): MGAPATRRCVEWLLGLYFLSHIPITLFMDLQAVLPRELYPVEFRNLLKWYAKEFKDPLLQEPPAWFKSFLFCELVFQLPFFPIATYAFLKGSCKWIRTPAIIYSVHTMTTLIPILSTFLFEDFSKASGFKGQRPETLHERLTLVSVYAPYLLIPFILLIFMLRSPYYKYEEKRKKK

With `CCCCc1oc2ccccc2c1C(=O)c1cc(I)c(OCCN(CC)CC)c(I)c1` [Amiodarone] the “NBD-PE aggregates vs DMSO” value [1] was “substantial increases in NBD-PE aggregates”, the “antiviral activity against SARS-CoV-2 in cells” value (from here on “antiviral activity”) [2] was “mid-to high-nM activities against viral replication” and the “effect on lung viral titer / viral propagation in mice” value [3] was “no substantial effect on viral propagation”.

`CC[C@H]1OC(=O)[C@H](C)[C@@H](O[C@H]2C[C@@](C)(OC)[C@@H](O)[C@H](C)O2)[C@H](C)[C@@H](O[C@@H]2O[C@H](C)C[C@H](N(C)C)[C@H]2O)[C@](C)(O)C[C@@H](C)CN(C)[C@H](C)[C@@H](O)[C@]1(C)O` [Azithromycin] was tested, and the “induction of phospholipidosis” value [4] was “confirmed phospholipidosis-inducing activity”.

For `COc1cc2nc(N3CCCN(C)CC3)nc(NC3CCN(Cc4ccccc4)CC3)c2cc1OC` [Bix 01294], the “induction of phospholipidosis” value [4] was “confirmed phospholipidosis-inducing activity”, the “NBD-PE aggregates vs DMSO” value [1] was “substantial increases in NBD-PE aggregates” and the “SARS-CoV-2 spike protein signal” value [1] was “nearly complete loss of spike protein signal”.

With `CN1CCC[C@@H]1CCO[C@](C)(c1ccccc1)c1ccc(Cl)cc1` [Clemastine] the “phospholipidosis (DIPL)” value [4] was > 50 % of amiodarone.

In the case of `Cc1ccccc1NC(=N)Nc1ccccc1C` [DTG, ditolylguanidine], the “induction of phospholipidosis” value [4] is reported as “did not induce phospholipidosis” and the “antiviral activity” value [2] is reported as “not antiviral; also recorded: no measurable antiviral effects”.

`CNCC[C@H](Oc1cccc2ccccc12)c1cccs1` [Duloxetine] was tested, and the phospholipidosis inducer class [4] was “strong (key: > 50% of the strong phospholipidosis inducer amiodarone; medium: 50% > DIPL > 25% of amiodarone)”.

With `CC(C)(C)c1ccc(C(=O)CCCN2CCC(OC(c3ccccc3)c3ccccc3)CC2)cc1` [Ebastine] the “induction of phospholipidosis” value [4] was “confirmed phospholipidosis-inducing activity”.

`COc1cc2c(cc1OC)CN(CCc1ccc(NC(=O)c3cccc4c(=O)c5cccc(OC)c5[nH]c34)cc1)CC2` [Elacridar] was tested, and the “induction of phospholipidosis” value [4] was “non-phospholipidosis inducing”, the “effect on lung viral titer / viral propagation in mice” value [3] was “modest antiviral effect” and the “dose above which mice exhibited toxicities” value ([3]; mice, i.p. once per day) was “higher than 3 mg/kg”.

With `Cc1c2ccncc2c(C)c2c1[nH]c1ccccc12` [Ellipticine] the phospholipidosis inducer class ([4]; DIPL relative to amiodarone) was “medium (key: > 50% of the strong phospholipidosis inducer amiodarone; medium: 50% > DIPL > 25% of amiodarone)” and the “induction of phospholipidosis” value [4] was “confirmed phospholipidosis-inducing activity”.

In the case of `O=C1NCN(c2ccccc2)C12CCN(CCCC(c1ccc(F)cc1)c1ccc(F)cc1)CC2` [Fluspirilene], the phospholipidosis inducer class ([4]; DIPL relative to amiodarone) is reported as “medium (key: > 50% of the strong phospholipidosis inducer amiodarone; medium: 50% > DIPL > 25% of amiodarone)”.

`CCN(CCO)CCCC(C)Nc1ccnc2cc(Cl)ccc12` (stereo not shown) [Hydroxychloroquine] was tested, and the “NBD-PE aggregates vs DMSO” value [1] was “substantial increases in NBD-PE aggregates”.

`CC1CCN(CCCC(=O)c2ccc(F)cc2)CC1` [Melperone] was tested, and the “induction of phospholipidosis” value [4] was “did not induce phospholipidosis; also recorded: non-phospholipidosis inducing” and the “antiviral activity” value [2] was “not antiviral; also recorded: no measurable antiviral effects”.

`CN1CCC(CN2c3ccccc3Sc3ccccc32)C1` (stereo not shown) [Methdilazine] was tested, and the phospholipidosis inducer class ([4]; DIPL relative to amiodarone) was “medium (key: > 50% of the strong phospholipidosis inducer amiodarone; medium: 50% > DIPL > 25% of amiodarone)”.

In the case of `Cc1cc2c(s1)Nc1ccccc1N=C2N1CCN(C)CC1` [Olanzapine], the phospholipidosis inducer class ([4]; DIPL relative to amiodarone) is reported as “medium (key: > 50% of the strong phospholipidosis inducer amiodarone; medium: 50% > DIPL > 25% of amiodarone)” and the “induction of phospholipidosis” value [4] is reported as “did induce phospholipidosis”.

For `COc1cccc2c1CCCC2CCCN1CCN(C2CCCCC2)CC1` (stereo not shown) [PB28], the “sigma-1 binding” value [5] was “strong ligand of both sigma-1 and sigma-2”, the “sigma-2 binding” value [6] was “strong ligand of both sigma-1 and sigma-2” and the “induction of phospholipidosis” value [4] was “both induce phospholipidosis”. The “NBD-PE aggregates vs DMSO” value [1] was “substantial increases in NBD-PE aggregates” and the “effect on lung viral titer / viral propagation in mice” value [3] was “no substantial effect on viral propagation”.

For `CN[C@H]1CC[C@@H](c2ccc(Cl)c(Cl)c2)c2ccccc21` [Sertraline], the “phospholipidosis (DIPL)” value [4] was > 50 % of amiodarone, the “NBD-PE aggregates vs DMSO” value [1] was “substantial increases in NBD-PE aggregates” and the “antiviral activity” value [2] was “mid-to high-nM activities against viral replication”. The “effect on lung viral titer / viral propagation in mice” value [3] was “no substantial effect on viral propagation”.

`CC/C(=C(\c1ccccc1)c1ccc(OCCN(C)C)cc1)c1ccccc1` [Tamoxifen] was tested, and the “antiviral activity” value [2] was “mid-to high-nM activities against viral replication” and the “effect on lung viral titer / viral propagation in mice” value [3] was “no substantial effect on viral propagation”.

In the case of `CCSc1ccc2c(c1)N(CCCN1CCN(C)CC1)c1ccccc1S2` [Thiethylperazine], the phospholipidosis inducer class ([4]; DIPL relative to amiodarone) is reported as “medium (key: > 50% of the strong phospholipidosis inducer amiodarone; medium: 50% > DIPL > 25% of amiodarone)”.

With `CN(C)CCOc1ccc(/C(=C(/CCCl)c2ccccc2)c2ccccc2)cc1` [Toremifene] the phospholipidosis inducer class ([4]; DIPL relative to amiodarone) was “strong (key: > 50% of the strong phospholipidosis inducer amiodarone; medium: 50% > DIPL > 25% of amiodarone)”.
